Source: patent US8383637B2, “2-amino-quinazoline derivatives useful as inhibitors of β-secretase (BACE)” (Jansssen Pharmaceutica N.V., priority 2004, dated 2013)

melting point: 198.1 °C
Structure (SMILES): CN(C(=O)CCN1Cc2cc(C(=O)c3ccccc3)ccc2N=C1N)C1CCCCC1
